Reference: ChEMBL document CHEMBL4376849, “Harmicines - harmine and cinnamic acid hybrids as novel antiplasmodial hits” (Eur J Med Chem, 2020)

Test system: Plasmodium falciparum
Test: Antiplasmodial activity against chloroquine-resistant Plasmodium falciparum Dd2 erythrocytic stage measured after 3 days by HRP2 assay
Assay type: functional, organism-based
Conditions: Dd2, 72 h

| Structure (SMILES) | IC50 [nM] |
| --- | --- |
| COc1ccc2c3ccnc(C)c3n(Cc3cn(C/C=C/c4cccc(Br)c4)nn3)c2c1 | 2260 |
| C/C(=C\c1ccccc1)Cn1cc(COc2ccc3c4ccnc(C)c4n(Cc4cn(C/C(C)=C/c5ccccc5)nn4)c3c2)nn1 | 4020 |
| Cc1nccc2c3ccc(OCc4cn(C/C=C/c5cccc(F)c5)nn4)cc3n(Cc3cn(C/C=C/c4cccc(F)c4)nn3)c12 | 3230 |
| Cc1nccc2c1[nH]c1cc(OCc3cn(C/C=C/c4ccc(F)cc4)nn3)ccc12 | 840 |
| Cc1nccc2c1[nH]c1cc(OCc3cn(C/C=C/c4ccc(F)c(F)c4)nn3)ccc12 | 1010 |
| Cc1nccc2c1[nH]c1cc(OCc3cn(C/C=C/c4ccccc4)nn3)ccc12 | 1090 |
| Cc1nccc2c1[nH]c1cc(OCc3cn(C/C=C/c4ccc(Cl)cc4)nn3)ccc12 | 690 |
| COc1ccc2c3ccnc(C)c3n(Cc3cn(C/C=C/c4ccccc4)nn3)c2c1 | 23800 |
| COc1ccc(/C=C/Cn2cc(Cn3c4cc(OC)ccc4c4ccnc(C)c43)nn2)cc1 | 16600 |
| C/C(=C\c1ccccc1)Cn1cc(COc2ccc3c(c2)[nH]c2c(C)nccc23)nn1 | 3060 |
| COc1ccc2c(c1)[nH]c1c(C)nccc12 [HARMINE] | > 27700 |
| COc1ccc2c3ccnc(C)c3n(Cc3cn(C/C=C/c4ccc(F)c(F)c4)nn3)c2c1 | 2550 |
| COc1ccc(/C=C/Cn2cc(COc3ccc4c(c3)[nH]c3c(C)nccc34)nn2)cc1 | 690 |

Test system: HepG2
Test: Cytotoxicity against human HepG2 cells measured after 24 hrs by neutral red assay
Assay type: cell-based
Conditions: HepG2, 24 h

| Structure (SMILES) | IC50 [nM] |
| --- | --- |
| COc1ccc2c3ccnc(C)c3n(Cc3cn(C/C=C/c4cccc(Br)c4)nn3)c2c1 | 56600 |
| C/C(=C\c1ccccc1)Cn1cc(COc2ccc3c4ccnc(C)c4n(Cc4cn(C/C(C)=C/c5ccccc5)nn4)c3c2)nn1 | 25000 |
| Cc1nccc2c3ccc(OCc4cn(C/C=C/c5cccc(F)c5)nn4)cc3n(Cc3cn(C/C=C/c4cccc(F)c4)nn3)c12 | 6010 |
| Cc1nccc2c1[nH]c1cc(OCc3cn(C/C=C/c4ccc(F)cc4)nn3)ccc12 | 2190 |
| Cc1nccc2c1[nH]c1cc(OCc3cn(C/C=C/c4ccc(F)c(F)c4)nn3)ccc12 | 740 |
| Cc1nccc2c1[nH]c1cc(OCc3cn(C/C=C/c4ccccc4)nn3)ccc12 | 9670 |
| Cc1nccc2c1[nH]c1cc(OCc3cn(C/C=C/c4ccc(Cl)cc4)nn3)ccc12 | 8800 |
| COc1ccc2c3ccnc(C)c3n(Cc3cn(C/C=C/c4ccccc4)nn3)c2c1 | > 250000 |
| COc1ccc(/C=C/Cn2cc(Cn3c4cc(OC)ccc4c4ccnc(C)c43)nn2)cc1 | > 120000 |
| C/C(=C\c1ccccc1)Cn1cc(COc2ccc3c(c2)[nH]c2c(C)nccc23)nn1 | 25300 |
| COc1ccc2c(c1)[nH]c1c(C)nccc12 [HARMINE] | > 250000 |
| COc1ccc2c3ccnc(C)c3n(Cc3cn(C/C=C/c4ccc(F)c(F)c4)nn3)c2c1 | 9750 |
| COc1ccc(/C=C/Cn2cc(COc3ccc4c(c3)[nH]c3c(C)nccc34)nn2)cc1 | 5370 |

Test system: Plasmodium berghei
Test: Antiplasmodial activity against liver stage luciferase expressing Plasmodium berghei sporozoites infected in human Huh7 cells preincubated with host cells for 1 hr followed by plasmodium infection by bioluminescence assay
Assay type: functional, organism-based
Conditions: Huh-7

| Structure (SMILES) | IC50 [nM] |
| --- | --- |
| COc1ccc2c3ccnc(C)c3n(Cc3cn(C/C=C/c4cccc(Br)c4)nn3)c2c1 | 1100 |
| COc1ccc2c3ccnc(C)c3n(Cc3cn(C/C=C/c4ccccc4)nn3)c2c1 | 2620 |
| C/C(=C\c1ccccc1)Cn1cc(COc2ccc3c(c2)[nH]c2c(C)nccc23)nn1 | 660 |

Test system: Plasmodium falciparum
Test: Antiplasmodial activity against chloroquine-sensitive Plasmodium falciparum 3D7 erythrocytic stage measured after 3 days by HRP2 assay
Assay type: functional, organism-based
Conditions: 3D7, 72 h

| Structure (SMILES) | IC50 [nM] |
| --- | --- |
| COc1ccc2c3ccnc(C)c3n(Cc3cn(C/C=C/c4cccc(Br)c4)nn3)c2c1 | 560 |
| C/C(=C\c1ccccc1)Cn1cc(COc2ccc3c4ccnc(C)c4n(Cc4cn(C/C(C)=C/c5ccccc5)nn4)c3c2)nn1 | 1340 |
| Cc1nccc2c1[nH]c1cc(OCc3cn(C/C=C/c4ccc(F)cc4)nn3)ccc12 | 200 |
| Cc1nccc2c1[nH]c1cc(OCc3cn(C/C=C/c4ccc(F)c(F)c4)nn3)ccc12 | 340 |
| Cc1nccc2c1[nH]c1cc(OCc3cn(C/C=C/c4ccccc4)nn3)ccc12 | 260 |
| Cc1nccc2c1[nH]c1cc(OCc3cn(C/C=C/c4ccc(Cl)cc4)nn3)ccc12 | 150 |
| COc1ccc2c3ccnc(C)c3n(Cc3cn(C/C=C/c4ccccc4)nn3)c2c1 | 1260 |
| COc1ccc(/C=C/Cn2cc(Cn3c4cc(OC)ccc4c4ccnc(C)c43)nn2)cc1 | 610 |
| C/C(=C\c1ccccc1)Cn1cc(COc2ccc3c(c2)[nH]c2c(C)nccc23)nn1 | 330 |
| COc1ccc2c3ccnc(C)c3n(Cc3cn(C/C=C/c4ccc(F)c(F)c4)nn3)c2c1 | 650 |
| COc1ccc(/C=C/Cn2cc(COc3ccc4c(c3)[nH]c3c(C)nccc34)nn2)cc1 | 430 |

Test system: not listed separately
Test: Selectivity index, ratio of IC50 for human HepG2 cells to IC50 for Plasmodium falciparum 3D7
Assay type: toxicity
Conditions: read-out: Ratio IC50

| Structure (SMILES) | selectivity ratio |
| --- | --- |
| COc1ccc2c3ccnc(C)c3n(Cc3cn(C/C=C/c4cccc(Br)c4)nn3)c2c1 | 101 |
| C/C(=C\c1ccccc1)Cn1cc(COc2ccc3c4ccnc(C)c4n(Cc4cn(C/C(C)=C/c5ccccc5)nn4)c3c2)nn1 | 19 |
| Cc1nccc2c3ccc(OCc4cn(C/C=C/c5cccc(F)c5)nn4)cc3n(Cc3cn(C/C=C/c4cccc(F)c4)nn3)c12 | 2 |
| Cc1nccc2c1[nH]c1cc(OCc3cn(C/C=C/c4ccc(F)cc4)nn3)ccc12 | 11 |
| Cc1nccc2c1[nH]c1cc(OCc3cn(C/C=C/c4ccc(F)c(F)c4)nn3)ccc12 | 2 |
| Cc1nccc2c1[nH]c1cc(OCc3cn(C/C=C/c4ccccc4)nn3)ccc12 | 37 |
| Cc1nccc2c1[nH]c1cc(OCc3cn(C/C=C/c4ccc(Cl)cc4)nn3)ccc12 | 59 |
| COc1ccc2c3ccnc(C)c3n(Cc3cn(C/C=C/c4ccccc4)nn3)c2c1 | > 198 |
| COc1ccc(/C=C/Cn2cc(Cn3c4cc(OC)ccc4c4ccnc(C)c43)nn2)cc1 | > 197 |
| C/C(=C\c1ccccc1)Cn1cc(COc2ccc3c(c2)[nH]c2c(C)nccc23)nn1 | 77 |
| COc1ccc2c3ccnc(C)c3n(Cc3cn(C/C=C/c4ccc(F)c(F)c4)nn3)c2c1 | 15 |
| COc1ccc(/C=C/Cn2cc(COc3ccc4c(c3)[nH]c3c(C)nccc34)nn2)cc1 | 12 |
